Assays:
Format in all cases: physicochemical, human
[1] = LC/MS of blood plasma sample: time from blood collection to centrifugation (Table D); conditions: blood collection to centrifugation; for Rate of increase or decrease: detection intensity relative to 1 at 15 minutes, after 4 hours; for Increase or decrease: detection intensity, after 4 hours vs 15 minutes
Procedure, shortened: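 Healthy-subject blood (5 mL, EDTA) cooled and held at 4 °C before centrifugation (4 °C, 3000 rpm, 15 min), with plasma then frozen. LC/MS on Discovery HS F5-3 column at 40 °C, 0.1% formic acid water/acetonitrile, 0.25 mL/min, electrospray, MRM; intensities relative to 15 min collection-to-centrifugation set as 1.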

[2] = LC/MS of blood plasma sample: time from blood collection to cooling of blood (Table E); set-up: key to Rate of increase or decrease / Rate of increase or decrease (first value, increase): detection intensity relative to ≤1 min to cooling = 1; conditions: for Increase or decrease: detection intensity, blood collection to cooling 5 minutes or more vs 1 minute or less
[3] = LC/MS of blood plasma sample: number of times of freezing and thawing (Table F); conditions: for Rate of increase or decrease: detection intensity relative to 1 at 2 times, freezing and thawing 4 times; for Increase or decrease: detection intensity, freezing and thawing 4 times vs 2 times
Procedure, shortened: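 Human blood from a healthy subject drawn into EDTA tubes, cooled to 4° C within 1 min or after ≥5 min, centrifuged at 4° C, 3000 rpm, 15 min. Plasma frozen, then freeze-thawed 2, 4, 6 or 10 times and analysed by LC/MS (ESI, MRM). Intensities expressed relative to 2 freeze-thaw cycles set as 1.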

[4] = GC/MS of serum sample: time from blood collection to centrifugation (Table G); conditions: blood collection to centrifugation
Procedure, shortened: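 Blood was held for varying times before centrifugation (room temperature, 3500 rpm, 5 min); serum was frozen, then methoxymated and trimethylsilylated for GC/MS with electron ionization in MRM mode. Values are detection intensities relative to the 15-minute collection-to-centrifugation condition, set as 1.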

[5] = GC/MS of serum sample: time from centrifugation to isolation (Table H); set-up: key to Rate of increase or decrease / Rate of increase or decrease (first value, increase): detection intensity relative to 1 at 30 min centrifugation-to-isolation
Procedure, shortened: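 Blood was centrifuged at room temperature, 3500 rpm, 5 min, and the vessel left at room temperature for 30 min, 1 h or 6 h before serum isolation. Serum was methoxymated, trimethylsilylated and analysed by GC/MS with electron ionization in MRM mode; intensities expressed relative to the 30-min condition (=1).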

[6] = GC/MS of serum sample: number of times of freezing and thawing (Table I); set-up: key to Rate of increase or decrease / Rate of increase or decrease (first value, increase): detection intensity relative to 2 freeze-thaw cycles = 1; conditions: serum, GC/MS
Procedure, shortened: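 Serum was isolated after centrifugation at room temperature (3500 rpm, 5 min), frozen, and put through 2, 4, 6 or 10 freeze–thaw cycles. Samples were methoxymated and trimethylsilylated, then run by electron-ionization GC/MS in MRM mode on a BPX5 column (60 to 330 °C). Detection intensity is given relative to the 2-cycle sample, set as 1.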

[7] = LC/MS of serum sample: time from blood collection to centrifugation (Table J); conditions: for Rate of increase or decrease: after 4 hours from blood collection to centrifugation, detection intensity relative to 1 at 15 minutes; for Increase or decrease / Time when compound is affected: serum sample, LC/MS; for Increase or decrease: detection intensity vs 15 minutes from blood collection to centrifugation; for Time when compound is affected: time from blood collection to centrifugation, detection intensity changed by 30% or more vs 15 minutes
Procedure, shortened: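 Serum from blood centrifuged at room temperature, 3500 rpm, 5 min, then frozen; analysed by LC/MS on a Discovery HS F5-3 column at 40 °C. Mobile phase: 0.1% formic acid in water/acetonitrile, 0.25 mL/min, electrospray MRM. Values are intensity relative to a 15 min collection-to-centrifugation time.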

[8] = LC/MS of serum sample: time from centrifugation to isolation (Table K); set-up: key to Rate of increase or decrease: detection intensity relative to the 30-minute value set as 1; conditions: for Rate of increase or decrease: after 1 hour from centrifugation to isolation, detection intensity relative to 1 at 30 minutes; for Increase or decrease / Time when compound is affected: serum sample, LC/MS; for Increase or decrease: detection intensity vs 30 minutes from centrifugation to isolation; for Time when compound is affected: time from centrifugation to isolation, detection intensity changed by 30% or more vs 30 minutes
Procedure, shortened: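 Serum left at room temperature 30 min, 1 h or 6 h between centrifugation (3500 rpm, 5 min, room temperature) and isolation, then frozen and analysed by LC/MS (Discovery HS F5-3 column, 40° C., 0.1% formic acid water/acetonitrile, electrospray, MRM). Values are detection intensity relative to the 30-min condition set to 1.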

[9] = LC/MS of serum sample: number of times of freezing and thawing (Table M); set-up: key to Rate of increase or decrease: detection intensity relative to 1 at 2 freeze-thaw cycles; conditions: for Number of times when compound is affected / Increase or decrease: serum sample, LC/MS; for Number of times when compound is affected: detection intensity changed by 30% or more vs 2 times of freezing and thawing; for Increase or decrease: detection intensity vs 2 times of freezing and thawing
Procedure, shortened: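 Serum was isolated at room temperature after centrifugation at room temperature, 3500 rpm, 5 minutes, then frozen and freeze-thawed 2, 4, 6 or 10 times. LC/MS used a Discovery HS F5-3 column at 40° C with formic acid water/acetonitrile, electrospray MRM. Intensity is relative to 2 freeze-thaw cycles.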

Row | Rate of increase or decrease [1] | Increase or decrease [1] | Increase or decrease [2] | Rate of increase or decrease [3] | Increase or decrease [3] | Rate of increase or decrease [7] | Increase or decrease [7] | Time when compound is affected [7] | Rate of increase or decrease [8] | Increase or decrease [8] | Time when compound is affected [8] | Number of times when compound is affected [9] [times] | Increase or decrease [9] | SMILES | further results
1 | 1.39 | Increase | Increase | 0.58 | Decrease | 0.29 | Decrease | After 4 hours | 0.07 | Decrease | After 1 hour hours | 4 | Decrease | Nc1ncnc2c1ncn2[C@@H]1O[C@H](CO)[C@@H](O)[C@H]1O [Adenosine] | Rate of increase or decrease ([2]; detection intensity relative to 1 at 1 minute or less, blood collection to cooling 5 minutes): 1.52; Rate of increase or decrease ([4]; detection intensity relative to 1 at 15 minutes, after 4 hours): 0.17; Increase or decrease ([4]; detection intensity, after 4 hours vs 15 minutes): Decrease; Rate of increase or decrease ([5]; detection intensity relative to 1 at 30 minutes, after 1 hour): 3.11; Increase or decrease ([5]; detection intensity, after 1 hour vs 30 minutes): Increase; Rate of increase or decrease ([6]; detection intensity relative to 1 at 2 times, freezing and thawing 4 times): 0.36; Increase or decrease ([6]; detection intensity, freezing and thawing 4 times vs 2 times): Decrease; Rate of increase or decrease ([9]; 4 times of freezing and thawing, detection intensity relative to 1 at 2 times): 0.54
2 | 0.66 | Decrease | Different from individual | 2.09 | Increase | 2.82 | Increase | After 4 hours | 1.51 | Increase | After 1 hour hours | 6 | Different from individual | Nc1ncnc2c1ncn2[C@@H]1O[C@H](CSCC[C@H](N)C(=O)O)[C@@H](O)[C@H]1O [S-adenosylhomocysteine] | Rate of increase or decrease (second value, decrease) ([2]; different from individual to individual, individuals with decrease, relative to 1 at 1 minute or less, collection to cooling 5 minutes): 0.49; Rate of increase or decrease (first value, increase) ([2]; different from individual to individual, individuals with increase, relative to 1 at 1 minute or less, collection to cooling 5 minutes): 1.40; Rate of increase or decrease ([9]; 6 times of freezing and thawing, relative to 1 at 2 times, different from individual to individual, first value (increase)): 1.62; Rate of increase or decrease ([9]; 6 times of freezing and thawing, relative to 1 at 2 times, different from individual to individual, second value (decrease)): 0.49

— patent publication US20220146526A1, “METHOD FOR EVALUATING SAMPLE, ANALYSIS METHOD, METHOD FOR DETECTING DEGRADED SAMPLE, MARKER FOR DETECTING DEGRADED BLOOD PLASMA SAMPLE, AND MARKER FOR DETECTING DEGRADED SERUM SAMPLE” (SHIMADZU CORPORATION, priority 2019, published 2022)
